The values below come from US12173061B2, “Compositions and methods for treatment of chronic lung diseases” (Board of Regents, The University of Texas System, priority 2021, dated 2024).

Series [1] has as its system pulmonary fibrosis after lung injury. The settings on record: cited from earlier work; for subsequent pulmonary fibrosis: after BLM, prior work; for PF in mice after single (1×) or multi-hit (8×) BLM-, Ad-TGF-β1-, silica- and thoracic radiation-induced lung injury: prior work of the inventor's group.
Series [2] concerns AECs / lung epithelial cells (LECs). The settings on record: cited from earlier work; for BLM-induced apoptosis of lung epithelial cells (LECs): in vitro and in vivo, prior work; for AEC apoptosis: prior work of the inventor's group.
Series [3] deals with fLfs. The settings on record: prior work of the inventor's group; cited from earlier work.
The test system of series [4] is BLM-induced pulmonary fibrosis. In words: BLM-induced established pulmonary fibrosis in mice, treatment d14-d21. It is filed as in vivo. The following applies: for BLM-induced pulmonary fibrosis (overall): mice, 1.0 U/kg BLM IT, peptide 10 mg/kg/d IP daily for 7 days starting d14; for lung compliance / lung elastance: flexiVent; for whole lung total hydroxyproline: lung homogenates. As for the experimental part:
FIGS. 9A-9O. M9 peptide and protein mitigated BLM-induced pulmonary fibrosis. Mice exposed to saline or 1.0 U/kg BLM by intratracheal instillation were treated with or without M9 peptide HGHVDPVKTPKI (SEQ ID NO: 4) (10 mg/kg/d) and M9 protein (SEQ ID NO: 1) 7.5 mg/kg/d) via IP injection daily for 7 days starting d14 after BLM injury. FIG. 9A: Representative micro-CT images at d21 after BLM exposure. FIG. 9B: Lung volumes were measured by quantitative-CT renditions. Lung compliance (FIG. 9C) and elastance (FIG. 9D) were measured using a flexiVent system. Lung weights (FIG. 9E) and body weights (FIG. 9F) are presented as bar graphs. Lung homogenates were tested for hydroxyproline (FIG. 9G), soluble collagen (FIG. 9H), pro-fibrogenic marker proteins (FIG. 9I) and mRNAs (FIG. 9J). Bars indicate mean±SD. Statistical significance (*P<0.05, **P<0.01, ***P<0.001 and ****P<0.0001) was assessed by one-way ANOVA with Turkey's multiple comparison. fLfs isolated from IPF lungs treated with PBS or recombinant full length M9 (rM9^FL) protein (2 μg/ml) for 48 h in vitro were tested for pro-fibrogenic proteins (FIG. 9L). fLfs (from IPF lungs) treated with PBS or extracellular domain of rM9^FL protein (rM9^ECD) as in FIG. 9L were tested for pro-fibrogenic proteins (FIG. 9N). The survival the mice treated with rM9^FL is shown FIG. 9M.
FIGS. 10A-10K. UNC5A (“U5”) peptide/protein mitigated BLM-induced pulmonary fibrosis. Mice exposed to saline or 1.0 U/kg BLM by intratracheal instillation were treated with or without U5 peptide (50 residues, SEQ ID NO: 7) (10 mg/kg/d) and full length U5 protein (SEQ ID NO: 5) (7.5 mg/kg/d) via IP injection daily for 7 days starting d14 after BLM injury. FIG. 10A: Representative micro-CT images at d21 after BLM exposure. FIG. 10B: Lung volumes were measured by quantitative-CT renditions. Lung compliance (FIG. 10C) and elastance (FIG. 10D) were measured using a flexiVent system. Lung weights (FIG. 10E) and body weights (FIG. 10F) are presented as bar graphs. Lung homogenates were tested for hydroxyproline (FIG. 10G), soluble collagen (FIG. 10H), pro-fibrogenic marker proteins (FIG. 10I) and mRNAs (FIG. 10J). Bars indicate mean±SD. Statistical significance (*P<0.05, **P<0.01, ***P<0.001 and ****P<0.0001) was assessed by one-way ANOVA with Turkey's multiple comparison.
FIGS. 11A-11K. ALG5 (“A5”) protein mitigated BLM-induced pulmonary fibrosis. Mice exposed to saline or 1.0 U/kg BLM by intratracheal instillation were treated with or without A5 protein (SEQ ID NO: 9) (7.5 mg/kg/d) via IP injection daily for 7 days starting d14 after BLM injury. FIG. 11A: Representative micro-CT images at d21 after BLM exposure. FIG. 11B: Lung volumes were measured by quantitative-CT renditions. Lung compliance (FIG. 11C) and elastance (FIG. 11D) were measured using a flexiVent system. Lung weights (FIG. 11E) and body weights (FIG. 11F) are presented as bar graphs. Lung homogenates were tested for hydroxyproline (FIG. 11G), soluble collagen (FIG. 11H), pro-fibrogenic marker proteins (FIG. 11I) and mRNAs (FIG. 11J). Bars indicate mean±SD. *P<0.05, **P<0.01, ***P<0.001 and ****P<0.0001 were obtained by one-way ANOVA with Turkey's multiple comparison.
FIGS. 12A-12E. WT mice with BLM-PF were treated with or without rM9^ECD (1.5 mg/kg) via intratracheal (IT) instillation daily for 7 d starting d 14 after BLM. Survival (FIG. 12A), body weights (FIG. 12B), lung volumes (FIG. 12C) and lung weights (FIG. 12D) were measured on d 21 post-BLM. Lung homogenates were tested for soluble collagen (FIG. 12E).
FIGS. 13A-13B. FIG. 13A: fLfs (IPF) treated with PBS or M9^mAb (2 μg/ml) or control IgG, tested for pro-fibrogenic proteins (i) and mRNAs (ii). FIG. 13B: WT mice with BLM-PF were left untreated, or intraperitoneal (IP) injected with control IgG or M9^mAb (2.5 mg/kg) daily for 7 d starting 14 d after IT BLM. Body weights (i) and total lung hydroxyproline (ii), and soluble collagen (iii) were measured. […]

Setting [5] is: peptide 10 mg/kg/d IP, 7 days starting d14 after BLM.
The mark [6] stands for this setting: peptide 10 mg/kg/d IP, 7 days starting d14 after BLM, d21.

On to “DGIWKASFTTFTVTKYWFYR (listed as Homo sapiens) [CSP]”, for which, in series [1], the subsequent pulmonary fibrosis entry was “prevented”; the “PF in mice after single (1×) or multi-hit (8×) BLM-, Ad-TGF-β1-, silica- and thoracic radiation-induced lung injury” value is “blocked”. In series [2], the “BLM-induced apoptosis of lung epithelial cells (LECs)” value is given as “protected” and the AEC apoptosis entry is “inhibited”. For the same substance, the fLf expansion result in series [3] is given as “inhibited”.

Turning to FTTFTVT (listed as Homo sapiens) [CSP7], in series [1] (prior work (Marudamuthu et al., 2019)), the tolerability in mice entry is reported as “well-tolerated”. In addition, the “PF in mice after single (1×) or multi-hit (8×) BLM-, Ad-TGF-β1-, silica- and thoracic radiation-induced lung injury” value in series [1] was “blocked”. Besides, in series [2], the AEC apoptosis entry is given as “inhibited”. The fLf expansion result in series [3] was “inhibited”.

With “HGHVDPVKTPKI (listed as Homo sapiens) [M9 peptide]”, the “BLM-induced pulmonary fibrosis (overall)” value in series [4] (d21) is recorded as “mitigated”. Further, the “BLM-induced pulmonary fibrosis (overall)” value in series [4] (d21, listed as M9 12-Mer Peptide) was “Mitigated”. In addition, the “BLM-induced pulmonary fibrosis (overall)” value in series [4] (d21, listed as SEQ ID NO: 4) was “resolved”. Moreover, in series [4] (setting [5]), the “BLM-induced fibrogenic marker proteins (Col1, FN, TN-C, α-SMA) in whole lung homogenates” value was “marked inhibition”; the body weight entry is “improvement”; the “collagen and other extracellular matrix deposits (Trichrome staining of lung sections)” value was “remarkable reduction”; the “fibrogenic marker transcripts in whole lung homogenates” value was “marked inhibition”. In series [4] (setting [5]), the lung weight result was “reduction” and the “whole lung total hydroxyproline” value was “significant inhibition”. In series [4] (setting [6]), the lung compliance entry is reported as “improved” and the lung elastance result is given as “improved”. Further, the lung volume result in series [4] (peptide 10 mg/kg/d IP, 7 days starting d14 after BLM, quantitative CT, d21) is on record as “improved”.

As for “NYHYLESSMTALYTLGH (listed as Homo sapiens) [PP-2]”, the subsequent pulmonary fibrosis result in series [1] is given as “prevented”. Further, in series [2], the “BLM-induced apoptosis of lung epithelial cells (LECs)” value is “protected”.

Regarding “VYCRKKEGLDSDVADSSILTSGFQPVSIKPSKADNPHLLTIQPDLSTTTT (VYCRKKEGLDSDVADSSILTSGFQPVSIKPSKADNPHLLTIQPDLSTTTT; listed as Homo sapiens) [U5A peptide]”, the “BLM-induced pulmonary fibrosis (overall)” value in series [4] (d21, listed as U5A 50-Mer Peptide) was “Mitigated”. Moreover, in series [4] (d21, listed as U5 peptide), the “BLM-induced pulmonary fibrosis (overall)” value is reported as “mitigated”. Besides, in series [4] (setting [5]), the “BLM-induced fibrogenic marker proteins (Col1, FN, TN-C, α-SMA) in whole lung homogenates” value was “inhibition”; the body weight entry is “improvement”; the “collagen and other extracellular matrix deposits (Trichrome staining of lung sections)” value is listed as “reduction”; the “fibrogenic marker transcripts in whole lung homogenates” value was “inhibition”. Further, in series [4] (setting [5]), the lung weight result is reported as “reduction” and the “whole lung total hydroxyproline” value is reported as “reduction”. In series [4] (setting [6]), the lung compliance entry was “improved” and the lung elastance result is “improved”.
